Measured values from ChEMBL document CHEMBL4364294 (J Med Chem, 2019).

Assay: Intrinsic clearance in human liver microsomes
Type: ADME, Microsome
Details: read-out: CLH

- predicted hepatic clearance: 18 mL/min/kg
Structure (SMILES): OC(CC1c2ccccc2-c2cncn21)C1CCCCC1 (stereo unspecified)
